Experimental data taken from publication PMC9329436, “Optimization of the 4-anilinoquin(az)oline scaffold as epidermal growth factor receptor (EGFR) inhibitors for chordoma utilizing a toxicology profiling assay platform” (Scientific Reports, 2022).
Like-named read-outs stand apart in the source and are kept apart here.

How the values were obtained:
Assay type in all cases: biochemical
[1] = target: 320 wild-type protein kinases (Homo sapiens, UniProt P51451); conditions: BLK, singlicate
Excerpt: (§1) Table S4. Profiling of two compounds at two concentrations against 320 wild-type protein kinases; singlicate measurement; Residual activities (% of control).

[2] = target: 320 wild-type protein kinases (Homo sapiens, UniProt Q06187); conditions: BTK, singlicate
Chain of 320 wild-type protein kinases (Homo sapiens, UniProt Q06187) (Q06187 whole entry): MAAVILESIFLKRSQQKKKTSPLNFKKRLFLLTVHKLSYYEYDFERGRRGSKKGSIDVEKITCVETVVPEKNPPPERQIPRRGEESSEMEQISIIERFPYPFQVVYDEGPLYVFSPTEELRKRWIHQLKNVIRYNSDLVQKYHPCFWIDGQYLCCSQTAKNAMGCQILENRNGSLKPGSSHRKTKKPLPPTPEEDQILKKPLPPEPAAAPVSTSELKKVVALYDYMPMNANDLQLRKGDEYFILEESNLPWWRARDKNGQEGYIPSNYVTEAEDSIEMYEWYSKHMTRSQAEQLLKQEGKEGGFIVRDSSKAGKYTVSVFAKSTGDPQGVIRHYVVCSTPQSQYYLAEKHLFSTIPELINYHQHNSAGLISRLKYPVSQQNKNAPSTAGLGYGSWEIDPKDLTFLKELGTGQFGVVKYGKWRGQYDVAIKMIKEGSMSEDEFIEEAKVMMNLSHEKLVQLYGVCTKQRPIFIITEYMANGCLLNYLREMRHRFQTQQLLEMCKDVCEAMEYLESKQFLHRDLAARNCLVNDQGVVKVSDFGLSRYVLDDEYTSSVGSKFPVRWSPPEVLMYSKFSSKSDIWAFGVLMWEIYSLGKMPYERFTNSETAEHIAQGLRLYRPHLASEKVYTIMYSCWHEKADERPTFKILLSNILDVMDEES
Excerpt: as §1

[3] = target: 320 wild-type protein kinases (Homo sapiens, UniProt Q9H3Y6); conditions: kinase SRMS, singlicate
Chain of 320 wild-type protein kinases (Homo sapiens, UniProt Q9H3Y6) (Q9H3Y6 whole entry): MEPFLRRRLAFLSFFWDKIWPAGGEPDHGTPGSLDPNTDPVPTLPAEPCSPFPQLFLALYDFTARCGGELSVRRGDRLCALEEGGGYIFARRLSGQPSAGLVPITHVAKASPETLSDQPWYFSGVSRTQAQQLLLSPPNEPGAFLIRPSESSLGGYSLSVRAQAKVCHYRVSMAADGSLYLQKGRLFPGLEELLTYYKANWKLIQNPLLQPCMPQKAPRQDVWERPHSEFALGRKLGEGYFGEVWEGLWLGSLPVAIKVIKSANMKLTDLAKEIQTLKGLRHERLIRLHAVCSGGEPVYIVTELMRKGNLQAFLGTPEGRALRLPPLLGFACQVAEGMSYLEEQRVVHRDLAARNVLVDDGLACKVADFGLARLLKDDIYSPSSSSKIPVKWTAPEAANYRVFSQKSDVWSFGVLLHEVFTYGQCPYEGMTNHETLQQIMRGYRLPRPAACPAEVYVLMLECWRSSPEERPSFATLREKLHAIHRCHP
Excerpt: as §1

[4] = target: 320 wild-type protein kinases (Homo sapiens, UniProt Q8IU85); conditions: CAMK1D, singlicate
Chain of 320 wild-type protein kinases (Homo sapiens, UniProt Q8IU85) (Q8IU85 whole entry): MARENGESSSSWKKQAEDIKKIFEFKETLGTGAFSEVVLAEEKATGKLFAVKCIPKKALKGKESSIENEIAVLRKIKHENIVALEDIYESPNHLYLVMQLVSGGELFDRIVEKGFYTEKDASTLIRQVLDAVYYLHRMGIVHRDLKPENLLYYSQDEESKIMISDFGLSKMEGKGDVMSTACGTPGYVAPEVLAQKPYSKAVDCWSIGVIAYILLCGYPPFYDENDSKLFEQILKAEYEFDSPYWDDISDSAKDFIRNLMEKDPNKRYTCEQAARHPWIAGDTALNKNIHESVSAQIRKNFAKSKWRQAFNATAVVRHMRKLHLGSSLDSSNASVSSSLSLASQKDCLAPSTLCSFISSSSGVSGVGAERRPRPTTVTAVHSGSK
Excerpt: as §1

[5] = target: 320 wild-type protein kinases (Homo sapiens, UniProt O60674); conditions: singlicate
Excerpt: as §1

[6] = target: 320 wild-type protein kinases (Homo sapiens, UniProt P27037); conditions: ACV-R2A, singlicate
Chain of 320 wild-type protein kinases (Homo sapiens, UniProt P27037) (P27037 20-513): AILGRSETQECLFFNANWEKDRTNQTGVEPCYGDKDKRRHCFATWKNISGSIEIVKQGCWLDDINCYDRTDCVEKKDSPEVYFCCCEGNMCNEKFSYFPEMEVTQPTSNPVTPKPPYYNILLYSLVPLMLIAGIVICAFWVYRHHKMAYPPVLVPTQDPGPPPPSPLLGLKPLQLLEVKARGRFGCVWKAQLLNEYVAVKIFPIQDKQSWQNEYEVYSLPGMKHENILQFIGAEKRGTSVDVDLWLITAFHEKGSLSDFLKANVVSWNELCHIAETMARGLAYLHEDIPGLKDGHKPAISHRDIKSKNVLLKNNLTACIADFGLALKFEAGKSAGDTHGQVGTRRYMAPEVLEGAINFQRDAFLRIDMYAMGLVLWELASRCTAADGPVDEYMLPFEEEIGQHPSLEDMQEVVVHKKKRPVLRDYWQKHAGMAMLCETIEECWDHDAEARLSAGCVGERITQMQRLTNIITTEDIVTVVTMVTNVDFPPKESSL
Excerpt: as §1

[7] = target: 320 wild-type protein kinases (Homo sapiens, UniProt Q9P1W9); conditions: singlicate
Chain of 320 wild-type protein kinases (Homo sapiens, UniProt Q9P1W9) (Q9P1W9 whole entry): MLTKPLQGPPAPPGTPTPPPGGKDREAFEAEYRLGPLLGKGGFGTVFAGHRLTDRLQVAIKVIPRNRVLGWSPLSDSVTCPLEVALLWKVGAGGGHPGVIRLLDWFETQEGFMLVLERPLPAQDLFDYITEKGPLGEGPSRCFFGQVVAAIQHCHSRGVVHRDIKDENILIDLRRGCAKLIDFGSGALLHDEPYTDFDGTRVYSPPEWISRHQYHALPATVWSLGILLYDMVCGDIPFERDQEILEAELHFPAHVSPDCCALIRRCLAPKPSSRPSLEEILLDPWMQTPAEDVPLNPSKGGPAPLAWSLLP
Excerpt: as §1

[8] = target: T1, 320 wild-type protein kinases (Homo sapiens, UniProt P52333); conditions: singlicate
T1 sequence (P52333 1-1124): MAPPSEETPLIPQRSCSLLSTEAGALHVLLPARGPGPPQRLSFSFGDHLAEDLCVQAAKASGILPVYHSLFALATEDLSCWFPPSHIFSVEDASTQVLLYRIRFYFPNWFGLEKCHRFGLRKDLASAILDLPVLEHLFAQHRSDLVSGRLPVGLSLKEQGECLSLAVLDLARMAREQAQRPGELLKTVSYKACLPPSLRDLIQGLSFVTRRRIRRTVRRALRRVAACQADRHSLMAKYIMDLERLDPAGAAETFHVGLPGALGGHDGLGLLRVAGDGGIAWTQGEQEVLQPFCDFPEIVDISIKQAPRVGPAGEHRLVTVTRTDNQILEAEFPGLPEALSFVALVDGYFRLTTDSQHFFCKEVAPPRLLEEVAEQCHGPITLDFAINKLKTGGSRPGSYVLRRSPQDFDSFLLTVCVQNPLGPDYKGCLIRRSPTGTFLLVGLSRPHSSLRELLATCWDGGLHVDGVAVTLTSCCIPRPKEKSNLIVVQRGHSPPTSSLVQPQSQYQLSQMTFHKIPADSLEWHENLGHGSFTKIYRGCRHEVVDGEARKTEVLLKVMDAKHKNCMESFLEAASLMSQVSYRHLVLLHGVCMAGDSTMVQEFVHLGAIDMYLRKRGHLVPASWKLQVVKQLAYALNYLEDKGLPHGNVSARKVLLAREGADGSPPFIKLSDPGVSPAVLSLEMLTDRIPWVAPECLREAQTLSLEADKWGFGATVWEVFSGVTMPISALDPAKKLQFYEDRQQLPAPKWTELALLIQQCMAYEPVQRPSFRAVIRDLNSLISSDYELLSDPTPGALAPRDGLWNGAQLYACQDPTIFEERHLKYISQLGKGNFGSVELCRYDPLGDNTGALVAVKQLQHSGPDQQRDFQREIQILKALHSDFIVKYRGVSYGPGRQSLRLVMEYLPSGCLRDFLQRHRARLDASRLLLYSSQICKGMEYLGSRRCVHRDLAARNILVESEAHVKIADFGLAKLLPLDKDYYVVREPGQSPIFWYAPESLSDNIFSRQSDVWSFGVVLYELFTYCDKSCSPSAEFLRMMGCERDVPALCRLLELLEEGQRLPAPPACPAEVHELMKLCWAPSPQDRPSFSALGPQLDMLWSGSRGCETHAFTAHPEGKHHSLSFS
Excerpt: as §1

[9] = target: 320 wild-type protein kinases (Homo sapiens, UniProt P51617); conditions: singlicate
Chain of 320 wild-type protein kinases (Homo sapiens, UniProt P51617) (P51617 whole entry): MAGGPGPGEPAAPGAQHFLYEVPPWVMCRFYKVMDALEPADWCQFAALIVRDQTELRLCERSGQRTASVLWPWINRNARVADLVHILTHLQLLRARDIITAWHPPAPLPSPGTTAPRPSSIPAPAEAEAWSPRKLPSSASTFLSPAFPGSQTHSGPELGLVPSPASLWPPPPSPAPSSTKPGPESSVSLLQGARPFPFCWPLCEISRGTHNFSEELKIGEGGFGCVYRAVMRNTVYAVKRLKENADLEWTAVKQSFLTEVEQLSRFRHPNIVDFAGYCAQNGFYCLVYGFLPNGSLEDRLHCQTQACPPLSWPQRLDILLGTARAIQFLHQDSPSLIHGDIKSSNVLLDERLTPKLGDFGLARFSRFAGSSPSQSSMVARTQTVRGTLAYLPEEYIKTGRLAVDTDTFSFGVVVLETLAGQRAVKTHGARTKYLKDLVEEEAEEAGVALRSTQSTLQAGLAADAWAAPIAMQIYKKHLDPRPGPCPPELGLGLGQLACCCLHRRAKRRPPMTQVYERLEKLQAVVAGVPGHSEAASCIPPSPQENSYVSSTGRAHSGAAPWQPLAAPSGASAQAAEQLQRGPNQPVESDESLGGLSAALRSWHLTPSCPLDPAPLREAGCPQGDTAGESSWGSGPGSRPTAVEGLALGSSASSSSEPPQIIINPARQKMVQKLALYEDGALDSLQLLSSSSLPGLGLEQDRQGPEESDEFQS
Excerpt: as §1

[10] = target: 320 wild-type protein kinases (Homo sapiens, UniProt Q16513); conditions: singlicate
Chain of 320 wild-type protein kinases (Homo sapiens, UniProt Q16513) (Q16513 whole entry): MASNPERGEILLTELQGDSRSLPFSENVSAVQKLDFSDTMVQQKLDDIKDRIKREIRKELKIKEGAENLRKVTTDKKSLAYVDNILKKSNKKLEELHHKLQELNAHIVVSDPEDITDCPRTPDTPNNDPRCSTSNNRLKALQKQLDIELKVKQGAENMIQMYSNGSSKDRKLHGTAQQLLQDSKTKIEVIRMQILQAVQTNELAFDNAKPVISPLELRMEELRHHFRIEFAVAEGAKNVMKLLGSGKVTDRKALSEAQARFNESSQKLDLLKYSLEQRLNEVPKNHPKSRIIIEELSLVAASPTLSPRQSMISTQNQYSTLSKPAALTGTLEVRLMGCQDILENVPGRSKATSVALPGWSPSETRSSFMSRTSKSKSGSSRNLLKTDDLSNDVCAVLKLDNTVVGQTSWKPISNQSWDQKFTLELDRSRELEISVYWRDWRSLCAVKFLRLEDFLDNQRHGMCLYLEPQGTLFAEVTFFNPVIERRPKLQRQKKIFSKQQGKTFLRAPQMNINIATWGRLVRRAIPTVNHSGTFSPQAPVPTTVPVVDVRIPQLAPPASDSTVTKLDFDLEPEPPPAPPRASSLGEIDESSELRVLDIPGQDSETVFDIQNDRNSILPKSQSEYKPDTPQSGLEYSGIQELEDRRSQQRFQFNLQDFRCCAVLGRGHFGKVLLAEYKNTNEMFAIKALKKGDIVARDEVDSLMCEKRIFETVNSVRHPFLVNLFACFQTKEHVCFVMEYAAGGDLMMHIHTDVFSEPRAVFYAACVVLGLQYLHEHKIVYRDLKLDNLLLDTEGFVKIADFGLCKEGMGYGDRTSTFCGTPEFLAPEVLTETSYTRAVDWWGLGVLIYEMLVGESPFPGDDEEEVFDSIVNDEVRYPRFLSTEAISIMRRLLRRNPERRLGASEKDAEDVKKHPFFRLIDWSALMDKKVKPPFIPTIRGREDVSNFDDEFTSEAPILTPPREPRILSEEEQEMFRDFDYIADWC
Excerpt: as §1

[11] = target: 320 wild-type protein kinases (Homo sapiens, UniProt Q9UQM7); conditions: CAMK2A, singlicate
Chain of 320 wild-type protein kinases (Homo sapiens, UniProt Q9UQM7) (Q9UQM7 whole entry): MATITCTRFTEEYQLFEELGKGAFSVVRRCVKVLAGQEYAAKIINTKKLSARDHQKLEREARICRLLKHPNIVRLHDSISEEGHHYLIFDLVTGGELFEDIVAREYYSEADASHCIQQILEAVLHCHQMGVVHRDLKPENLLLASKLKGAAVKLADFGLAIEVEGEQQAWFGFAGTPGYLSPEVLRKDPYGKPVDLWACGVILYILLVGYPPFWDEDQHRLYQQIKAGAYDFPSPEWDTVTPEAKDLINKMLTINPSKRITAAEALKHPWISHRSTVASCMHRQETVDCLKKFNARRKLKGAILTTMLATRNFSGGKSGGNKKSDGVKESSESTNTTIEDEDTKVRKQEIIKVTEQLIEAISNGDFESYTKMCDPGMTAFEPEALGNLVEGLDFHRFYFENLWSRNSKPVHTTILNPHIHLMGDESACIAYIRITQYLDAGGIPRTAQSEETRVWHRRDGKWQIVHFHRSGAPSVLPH
Excerpt: as §1

[12] = target: T2, 320 wild-type protein kinases (Homo sapiens, UniProt Q9UBE8); conditions: NLK, singlicate
T2 sequence (Q9UBE8 1-527): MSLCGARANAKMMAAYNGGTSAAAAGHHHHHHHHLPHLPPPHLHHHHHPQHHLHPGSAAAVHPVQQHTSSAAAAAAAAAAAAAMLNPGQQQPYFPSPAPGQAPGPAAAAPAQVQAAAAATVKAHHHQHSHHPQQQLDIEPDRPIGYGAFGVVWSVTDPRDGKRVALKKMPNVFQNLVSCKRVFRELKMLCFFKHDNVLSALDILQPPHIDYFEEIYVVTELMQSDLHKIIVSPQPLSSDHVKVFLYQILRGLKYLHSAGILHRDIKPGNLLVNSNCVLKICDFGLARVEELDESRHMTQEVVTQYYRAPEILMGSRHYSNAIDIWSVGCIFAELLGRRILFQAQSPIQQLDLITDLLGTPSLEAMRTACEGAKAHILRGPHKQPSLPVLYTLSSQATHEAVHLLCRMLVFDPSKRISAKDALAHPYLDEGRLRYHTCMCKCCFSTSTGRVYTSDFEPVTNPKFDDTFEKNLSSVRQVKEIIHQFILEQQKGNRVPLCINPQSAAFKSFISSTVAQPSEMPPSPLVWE
Excerpt: as §1

[13] = target: 320 wild-type protein kinases (Homo sapiens, UniProt P21802); conditions: singlicate
Excerpt: as §1

[14] = target: 320 wild-type protein kinases (Homo sapiens, UniProt P06241); conditions: FYN, singlicate
Excerpt: as §1

Chain of 320 wild-type protein kinases (Homo sapiens, UniProt P51451) (P51451 whole entry): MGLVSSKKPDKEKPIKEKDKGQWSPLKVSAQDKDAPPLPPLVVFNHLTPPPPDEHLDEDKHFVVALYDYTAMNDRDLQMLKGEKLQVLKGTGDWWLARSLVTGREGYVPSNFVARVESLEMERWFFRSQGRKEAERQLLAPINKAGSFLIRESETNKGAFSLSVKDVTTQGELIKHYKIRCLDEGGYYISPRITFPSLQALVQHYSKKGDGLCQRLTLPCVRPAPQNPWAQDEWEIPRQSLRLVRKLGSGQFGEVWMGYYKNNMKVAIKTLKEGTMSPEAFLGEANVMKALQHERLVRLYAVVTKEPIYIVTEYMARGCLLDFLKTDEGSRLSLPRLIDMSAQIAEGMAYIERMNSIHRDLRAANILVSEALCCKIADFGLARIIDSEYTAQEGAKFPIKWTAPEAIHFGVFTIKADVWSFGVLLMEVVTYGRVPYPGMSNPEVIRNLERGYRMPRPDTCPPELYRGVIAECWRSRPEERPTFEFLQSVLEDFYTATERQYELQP

Structure (SMILES)	Residual activity ([1]; 1.0E-06 M)	Residual activity ([1]; 1.0E-07 M)	Residual activity ([2]; 1.0E-06 M)	Residual activity ([2]; 1.0E-07 M)	Residual activity, SRMS ([3]; assay conc. 1.0E-06 M)	Residual activity, SRMS ([3]; assay conc. 1.0E-07 M)	Residual activity ([4]; 1.0E-06 M)	Residual activity ([4]; 1.0E-07 M)	Residual activity ([5]; JAK2, 1.0E-06 M)	Residual activity ([5]; JAK2, 1.0E-07 M)	Residual activity ([6]; 1.0E-06 M)	Residual activity ([6]; 1.0E-07 M)	Residual activity ([7]; PIM2, 1.0E-06 M)	Residual activity ([7]; PIM2, 1.0E-07 M)	Residual activity ([8]; JAK3, 1.0E-06 M)	Residual activity ([8]; JAK3, 1.0E-07 M)	Residual activity ([9]; IRAK1, 1.0E-06 M)	Residual activity ([9]; IRAK1, 1.0E-07 M)	Residual activity ([10]; PRK2, 1.0E-06 M)	Residual activity ([10]; PRK2, 1.0E-07 M)	also measured
C#Cc1cc(Nc2ncnc3cc(I)ccc23)ccc1Cl [Compound 41]	93 % of control	99 % of control	100 % of control	103 % of control	98 % of control	113 % of control	77 % of control	86 % of control	98 % of control	105 % of control	92 % of control	96 % of control	101 % of control	112 % of control	78 % of control	108 % of control	103 % of control	109 % of control	88 % of control	85 % of control	Residual activity ([11]; 1.0E-06 M): 93 % of control; Residual activity ([11]; 1.0E-07 M): 99 % of control; Residual activity ([12]; 1.0E-06 M): 63 % of control; Residual activity ([12]; 1.0E-07 M): 76 % of control; Residual activity ([13]; FGF-R2, 1.0E-06 M): 85 % of control; Residual activity ([13]; FGF-R2, 1.0E-07 M): 88 % of control; Residual activity ([14]; 1.0E-06 M): 101 % of control; Residual activity ([14]; 1.0E-07 M): 107 % of control
C#Cc1cc(Nc2ncnc3cc(OC)c(OC)cc23)ccc1Cl [Compound 45]	62 % of control	99 % of control	65 % of control	100 % of control	103 % of control	124 % of control	84 % of control	99 % of control	92 % of control	102 % of control	96 % of control	101 % of control	100 % of control	89 % of control	85 % of control	112 % of control	105 % of control	109 % of control	95 % of control	92 % of control	Residual activity ([11]; 1.0E-06 M): 101 % of control; Residual activity ([11]; 1.0E-07 M): 104 % of control; Residual activity ([12]; 1.0E-06 M): 31 % of control; Residual activity ([12]; 1.0E-07 M): 83 % of control; Residual activity ([13]; FGF-R2, 1.0E-06 M): 69 % of control; Residual activity ([13]; FGF-R2, 1.0E-07 M): 87 % of control; Residual activity ([14]; 1.0E-06 M): 76 % of control; Residual activity ([14]; 1.0E-07 M): 110 % of control
